Test results reported in paper PMC9501633, “Synthesis, Characterisation and Mechanism of Action of Anticancer 3-Fluoroazetidin-2-ones” (Pharmaceuticals, 2022).

Columns and labels:
SNB-75 = assay: NCI 60 cell line screen, CNS; type: cell-based, human; conditions: one dose 10 µM; for inhibition at 10 µM: Homo sapiens
NCI/ADR-RES = assay: NCI 60 cell line screen, Ovarian; type: cell-based, human; conditions: one dose 10 µM; for inhibition at 10 µM: Homo sapiens
RPMI-8226 = assay: NCI 60 cell line screen, Leukaemia; type: cell-based, human; conditions: one dose 10 µM; for inhibition at 10 µM: Homo sapiens
HOP-62 = assay: NCI 60 cell line screen, NSCLung; type: cell-based, human; conditions: one dose 10 µM; for inhibition at 10 µM: Homo sapiens
ACHN = assay: NCI 60 cell line screen, Renal; type: cell-based, human; conditions: one dose 10 µM; for inhibition at 10 µM: Homo sapiens
UACC-62 = assay: NCI 60 cell line screen, Melanoma; type: cell-based, human; conditions: one dose 10 µM; for inhibition at 10 µM: Homo sapiens
NCI-H522 = assay: NCI 60 cell line screen, NSCLung; type: cell-based, human; conditions: one dose 10 µM; for inhibition at 10 µM: Homo sapiens
SF-295 = assay: NCI 60 cell line screen, CNS; type: cell-based, human; conditions: one dose 10 µM; for inhibition at 10 µM: Homo sapiens
IGROV1 = assay: NCI 60 cell line screen, Ovarian; type: cell-based, human; conditions: for inhibition at 10 µM: Homo sapiens, IGROV-1, one dose 10 µM; for Growth %: one dose 10 µM
EKVX = assay: NCI 60 cell line screen, NSCLung; type: cell-based, human; conditions: one dose 10 µM; for inhibition at 10 µM: Homo sapiens
MDA-MB-468 = assay: NCI 60 cell line screen, Breast; type: cell-based, human; conditions: one dose 10 µM; for inhibition at 10 µM: Homo sapiens
NCI-H23 = assay: NCI 60 cell line screen, NSCLung; type: cell-based, human; conditions: one dose 10 µM; for inhibition at 10 µM: Homo sapiens
OVCAR-8 = assay: NCI 60 cell line screen, Ovarian; type: cell-based, human; conditions: one dose 10 µM; for inhibition at 10 µM: Homo sapiens
SR = assay: NCI 60 cell line screen, Leukaemia; type: cell-based, human; conditions: one dose 10 µM; for inhibition at 10 µM: Homo sapiens
OVCAR-3 = assay: NCI 60 cell line screen, Ovarian; type: cell-based, human; conditions: one dose 10 µM; for inhibition at 10 µM: Homo sapiens
PC-3 = assay: NCI 60 cell line screen, Prostate; type: cell-based, human; conditions: one dose 10 µM; for inhibition at 10 µM: Homo sapiens
BT-549 = assay: NCI 60 cell line screen, Breast; type: cell-based, human; conditions: one dose 10 µM; for inhibition at 10 µM: Homo sapiens
NCI-H460 = assay: NCI 60 cell line screen, NSCLung; type: cell-based, human; conditions: one dose 10 µM; for inhibition at 10 µM: Homo sapiens
KM12 = assay: NCI 60 cell line screen, Colon; type: cell-based, human; conditions: one dose 10 µM; for inhibition at 10 µM: Homo sapiens
HCC-2998 = assay: NCI 60 cell line screen, Colon; type: cell-based, human; conditions: one dose 10 µM; for inhibition at 10 µM: Homo sapiens
[1] = system: MCF-7 human breast cancer cells; assay: AlamarBlue cell viability assay; type: cell-based; conditions: MCF-7, 72 h
Procedure: The antiproliferative potential of the synthesised 3-fluoro β-lactams 26–35 and 3,3-difluoro β-lactams 36–45 was evaluated in MCF-7 human breast cancer cells using the AlamarBlue assay, with CA-4 as reference compound (Figure 3). […] The results for the preliminary in vitro antiproliferative screen for 3-fluoro β-lactam compounds (26–29), which contain different substituents at the para position in the B ring, are presented in Figure 3A.
Cells were seeded at a density of 5 × 10^3 cells/well (MCF-7 and MDA-MB-231) and 1 × 10^4 cells/well (HEK-293T) in 96-well plates (200 μL per well). After 24 h, cells were then treated with medium alone, with vehicle (1% ethanol (v/v)) or with CA-4 or β-lactam compounds at 1 μM and 10 μM concentrations. […] Cell proliferation for MCF-7 cells was analysed with the AlamarBlue assay (Invitrogen Corp.) as previously described by us. After 72 h, AlamarBlue (10% (v/v)) was added to each well, and plates were incubated for 3–5 h at 37 °C in the dark. Fluorescence results were obtained with a 96-well fluorimeter with excitation at 530 nm and emission at 590 nm with results recorded as percentage viability relative to vehicle control (100%). Dose–response curves were obtained and IC50 values (concentration of drug resulting in 50% reduction in cell survival) were calculated using Prism (GraphPad Software, Inc., La Jolla, CA, USA).
Figure 3 Preliminary cell viability data for 3-fluoro and 3,3-difluoro β-lactam compounds. (A) 3-Fluoro β-lactam compounds containing different para-substituent ring B 26–29; 3-fluoro β-lactam compounds containing different meta-substituent ring B 30, 32–35; (B) 3-difluoro β-lactam compounds containing different para-substituent ring B 36–39; 3-difluoro β-lactam compounds containing different meta-substituent ring B 40, 42–45 in MCF-7 breast cancer cells. Cell proliferation of MCF-7 cells was determined with an AlamarBlue assay (seeding density […] for 96-well plates). Compound concentrations of either 10 μM or 1 μM for 72 h were used to treat the cells with control wells containing vehicle ethanol (1% v/v) and CA-4 (10 μM and 1 μM). The mean value for three experiments is shown with the ± S.E.M. for three independent experiments.

Compound: CCOc1ccc(C2N(c3cc(OC)c(OC)c(OC)c3)C(=O)C2(F)F)cc1 (centres unmarked) [Compound 37, 4-(4-Ethoxyphenyl)-3,3-difluoro-1-(3,4,5-trimethoxyphenyl)azetidin-2-one]
- inhibition at 10 µM (SNB-75): 44.1%
- Growth % (SNB-75): 55.93%
- inhibition at 10 µM (NCI/ADR-RES): 71.1%
- Growth % (NCI/ADR-RES): 28.94%
- inhibition at 10 µM (RPMI-8226): 85.4%
- Growth % (RPMI-8226): 14.64%
- inhibition at 10 µM (HOP-62): 59.2%
- Growth % (HOP-62): 40.81%
- inhibition at 10 µM (ACHN): 44.8%
- Growth % (ACHN): 55.25%
- inhibition at 10 µM (UACC-62): 48.4%
- Growth % (UACC-62): 51.61%
- inhibition at 10 µM (NCI-H522): 80.7%
- Growth % (NCI-H522): 19.28%
- inhibition at 10 µM (SF-295): 43.7%
- Growth % (SF-295): 56.32%
- inhibition at 10 µM (IGROV1): 62.2%
- Growth % (IGROV1): 37.8%
- inhibition at 10 µM (EKVX): 24.7%
- Growth % (EKVX): 75.34%
- inhibition at 10 µM (MDA-MB-468): 65.1%
- Growth % (MDA-MB-468): 34.89%
- inhibition at 10 µM (NCI-H23): 66.4%
- Growth % (NCI-H23): 33.57%
- inhibition at 10 µM (OVCAR-8): 56.8%
- Growth % (OVCAR-8): 43.23%
- inhibition at 10 µM (SR): 83.8%
- Growth % (SR): 16.25%
- inhibition at 10 µM (OVCAR-3): 92.8%
- Growth % (OVCAR-3): 7.25%
- inhibition at 10 µM (PC-3): 62.7%
- Growth % (PC-3): 37.3%
- inhibition at 10 µM (BT-549): 55.8%
- Growth % (BT-549): 44.17%
- inhibition at 10 µM (NCI-H460): 87.3%
- Growth % (NCI-H460): 12.73%
- inhibition at 10 µM (KM12): 72%
- Growth % (KM12): 27.97%
- inhibition at 10 µM (HCC-2998): 18.3%
- Growth % (HCC-2998): 81.66%

Compound: COc1ccc(C2N(c3cc(OC)c(OC)c(OC)c3)C(=O)C2(F)F)cc1F (centres unmarked) [Compound 43, 3,3-Difluoro-4-(3-fluoro-4-methoxyphenyl)-1-(3,4,5-trimethoxyphenyl)azetidin-2-one]
- inhibition at 10 µM (SNB-75): 35.3%
- Growth % (SNB-75): 64.74%
- inhibition at 10 µM (NCI/ADR-RES): 67.1%
- Growth % (NCI/ADR-RES): 32.94%
- inhibition at 10 µM (RPMI-8226): 79.2%
- Growth % (RPMI-8226): 20.78%
- inhibition at 10 µM (HOP-62): 61.6%
- Growth % (HOP-62): 38.43%
- inhibition at 10 µM (ACHN): 39.2%
- Growth % (ACHN): 60.82%
- IC50 ([1]; Homo sapiens, MCF7, 72 h): 1650 nM
- inhibition at 10 µM (UACC-62): 44.5%
- Growth % (UACC-62): 55.46%
- inhibition at 10 µM (NCI-H522): 82.5%
- Growth % (NCI-H522): 17.54%
- inhibition at 10 µM (SF-295): 51.7%
- Growth % (SF-295): 48.29%
- inhibition at 10 µM (IGROV1): 55.8%
- Growth % (IGROV1): 44.2%
- inhibition at 10 µM (EKVX): 22.3%
- Growth % (EKVX): 77.7%
- inhibition at 10 µM (MDA-MB-468): 55.5%
- Growth % (MDA-MB-468): 44.48%
- inhibition at 10 µM (NCI-H23): 62.1%
- Growth % (NCI-H23): 37.86%
- inhibition at 10 µM (OVCAR-8): 55.9%
- Growth % (OVCAR-8): 44.07%
- inhibition at 10 µM (SR): 81.3%
- Growth % (SR): 18.7%
- inhibition at 10 µM (OVCAR-3): 88.4%
- Growth % (OVCAR-3): 11.64%
- inhibition at 10 µM (PC-3): 64.1%
- Growth % (PC-3): 35.89%
- inhibition at 10 µM (BT-549): 65%
- Growth % (BT-549): 34.99%
- inhibition at 10 µM (NCI-H460): 72.8%
- Growth % (NCI-H460): 27.15%
- inhibition at 10 µM (KM12): 77.1%
- Growth % (KM12): 22.9%
- inhibition at 10 µM (HCC-2998): 15.8%
- Growth % (HCC-2998): 84.2%

Compound: COc1ccc(/C=C\c2cc(OC)c(OC)c(OC)c2)cc1O [CA-4, combretastatin A-4, reference compound]
- IC50 ([1]; Homo sapiens, MCF7, 72 h): 3 nM
- IC50 [1]: 3.5 nM
